Source: ChEMBL document CHEMBL4507283, “Data for DCP probe BI-1935” (2021)
The source made the active and inactive calls. No cut-off for these calls is given here.

Columns and labels:
[1] = molecular target: Serine/threonine-protein kinase PLK4 (Homo sapiens) (UniProt O00444); conditions: Compound concentration 1000.0 nM
[2] = molecular target: RAF proto-oncogene serine/threonine-protein kinase (Homo sapiens) (UniProt P04049); conditions: Compound concentration 1000.0 nM
[3] = molecular target: Calcium/calmodulin-dependent protein kinase type 1D (Homo sapiens) (UniProt Q8IU85); conditions: Compound concentration 1000.0 nM
Sequence of Calcium/calmodulin-dependent protein kinase type 1D (Homo sapiens) (Q8IU85 whole entry, looked up): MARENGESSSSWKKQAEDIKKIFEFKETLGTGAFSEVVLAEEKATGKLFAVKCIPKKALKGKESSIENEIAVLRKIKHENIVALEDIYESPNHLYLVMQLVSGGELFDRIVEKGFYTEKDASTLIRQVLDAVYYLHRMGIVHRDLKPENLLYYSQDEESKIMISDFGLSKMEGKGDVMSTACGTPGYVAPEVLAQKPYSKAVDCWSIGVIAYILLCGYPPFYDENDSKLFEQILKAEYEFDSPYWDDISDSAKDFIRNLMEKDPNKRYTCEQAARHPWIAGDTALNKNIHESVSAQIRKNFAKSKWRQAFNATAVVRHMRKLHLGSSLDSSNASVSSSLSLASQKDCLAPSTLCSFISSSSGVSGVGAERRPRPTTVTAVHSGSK

[4] = molecular target: Voltage-dependent L-type calcium channel subunit alpha-1C (Rattus norvegicus, UniProt P22002); assay: CA+/TLATATG Eurofins-Panlabs selectivity data (BI); parameters: species or system Cavia porcellus; mode of action antagonist; conditions: guinea pig, atrial tissue, read-out: % Ctrl
Sequence of Voltage-dependent L-type calcium channel subunit alpha-1C (P22002 whole entry): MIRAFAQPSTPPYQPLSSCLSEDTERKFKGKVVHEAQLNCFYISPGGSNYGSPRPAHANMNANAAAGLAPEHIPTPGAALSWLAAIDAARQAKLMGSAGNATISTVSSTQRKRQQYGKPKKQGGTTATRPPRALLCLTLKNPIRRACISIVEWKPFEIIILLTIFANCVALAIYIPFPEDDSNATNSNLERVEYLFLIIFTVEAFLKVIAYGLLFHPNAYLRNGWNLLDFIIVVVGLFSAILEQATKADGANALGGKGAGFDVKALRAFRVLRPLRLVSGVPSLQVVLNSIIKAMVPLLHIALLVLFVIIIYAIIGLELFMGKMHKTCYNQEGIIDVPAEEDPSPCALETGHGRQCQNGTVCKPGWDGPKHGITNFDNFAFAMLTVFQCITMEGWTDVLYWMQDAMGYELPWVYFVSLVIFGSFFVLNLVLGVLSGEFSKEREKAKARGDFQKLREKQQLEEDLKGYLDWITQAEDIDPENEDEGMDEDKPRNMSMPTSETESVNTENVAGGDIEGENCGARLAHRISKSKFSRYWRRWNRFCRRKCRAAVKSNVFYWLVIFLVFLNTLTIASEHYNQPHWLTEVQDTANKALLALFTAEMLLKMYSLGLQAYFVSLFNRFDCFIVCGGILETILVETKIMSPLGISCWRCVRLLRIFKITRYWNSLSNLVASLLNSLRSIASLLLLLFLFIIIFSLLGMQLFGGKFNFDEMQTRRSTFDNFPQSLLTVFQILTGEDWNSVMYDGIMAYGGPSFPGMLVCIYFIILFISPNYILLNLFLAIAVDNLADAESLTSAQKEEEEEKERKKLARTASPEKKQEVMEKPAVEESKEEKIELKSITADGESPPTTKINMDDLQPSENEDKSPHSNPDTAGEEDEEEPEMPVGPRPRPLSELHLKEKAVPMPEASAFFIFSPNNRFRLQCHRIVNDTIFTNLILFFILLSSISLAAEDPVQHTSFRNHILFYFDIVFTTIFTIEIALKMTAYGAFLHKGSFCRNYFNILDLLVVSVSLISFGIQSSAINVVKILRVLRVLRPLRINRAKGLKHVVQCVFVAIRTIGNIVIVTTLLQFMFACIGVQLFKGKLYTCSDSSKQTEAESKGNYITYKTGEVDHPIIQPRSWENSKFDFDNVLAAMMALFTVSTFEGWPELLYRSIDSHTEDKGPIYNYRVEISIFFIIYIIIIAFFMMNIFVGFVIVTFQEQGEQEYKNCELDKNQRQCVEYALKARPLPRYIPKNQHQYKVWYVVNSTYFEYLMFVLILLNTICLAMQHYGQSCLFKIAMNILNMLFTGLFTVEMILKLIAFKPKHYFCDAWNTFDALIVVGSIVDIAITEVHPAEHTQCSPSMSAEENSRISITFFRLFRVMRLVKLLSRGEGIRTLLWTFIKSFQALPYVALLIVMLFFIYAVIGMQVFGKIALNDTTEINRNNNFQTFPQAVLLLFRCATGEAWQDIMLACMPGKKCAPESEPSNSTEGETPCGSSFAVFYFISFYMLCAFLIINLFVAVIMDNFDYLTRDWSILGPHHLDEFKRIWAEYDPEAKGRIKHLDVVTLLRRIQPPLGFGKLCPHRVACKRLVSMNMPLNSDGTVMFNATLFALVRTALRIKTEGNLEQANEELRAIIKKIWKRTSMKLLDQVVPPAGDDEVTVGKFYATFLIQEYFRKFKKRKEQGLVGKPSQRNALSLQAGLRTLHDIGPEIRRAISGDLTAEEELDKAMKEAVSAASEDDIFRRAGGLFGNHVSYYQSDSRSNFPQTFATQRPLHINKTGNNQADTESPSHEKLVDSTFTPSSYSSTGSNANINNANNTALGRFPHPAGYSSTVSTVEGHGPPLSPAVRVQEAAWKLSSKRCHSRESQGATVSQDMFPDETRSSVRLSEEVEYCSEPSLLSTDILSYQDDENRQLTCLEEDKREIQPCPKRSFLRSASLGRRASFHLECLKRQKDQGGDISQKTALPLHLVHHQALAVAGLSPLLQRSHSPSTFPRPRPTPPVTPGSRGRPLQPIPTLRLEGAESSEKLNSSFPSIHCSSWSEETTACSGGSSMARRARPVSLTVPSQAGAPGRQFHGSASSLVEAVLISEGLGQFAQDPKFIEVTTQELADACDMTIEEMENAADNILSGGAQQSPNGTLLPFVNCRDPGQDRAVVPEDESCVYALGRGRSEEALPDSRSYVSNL

[5] = molecular target: Tyrosine-protein kinase FRK (Homo sapiens) (UniProt P42685); conditions: Compound concentration 1000.0 nM
[6] = molecular target: Tyrosine-protein kinase receptor UFO (Homo sapiens) (UniProt P30530); conditions: Compound concentration 1000.0 nM
[7] = molecular target: Alpha-2A adrenergic receptor (Homo sapiens) (UniProt P08913); conditions: Compound concentration 10.0 uM
[8] = system: Receptor-type tyrosine-protein kinase FLT3 (Homo sapiens), P36888 [R834Q]; conditions: Compound concentration 1000.0 nM
[9] = molecular target: Serine/threonine-protein kinase Nek10 (Homo sapiens) (UniProt Q6ZWH5); conditions: Compound concentration 1000.0 nM
[10] = molecular target: Prostaglandin G/H synthase 2 (Homo sapiens) (UniProt P35354); assay: COX-2 Eurofins-Panlabs selectivity data (BI); conditions: Compound concentration 10.0 uM
[11] = molecular target: Serine/threonine-protein kinase RIO3 (Homo sapiens) (UniProt O14730); conditions: Compound concentration 1000.0 nM
[12] = molecular target: LIM domain kinase 1 (Homo sapiens) (UniProt P53667); conditions: Compound concentration 1000.0 nM
[13] = molecular target: Histamine H1 receptor (Homo sapiens) (UniProt P35367); assay: H1/H Eurofins-Panlabs selectivity data (BI); conditions: Compound concentration 10.0 uM
[14] = molecular target: Mitogen-activated protein kinase 7 (Homo sapiens) (UniProt Q13164); conditions: Compound concentration 1000.0 nM
[15] = system: Epidermal growth factor receptor (Homo sapiens), P00533 [UNDEFINED MUTATION]; conditions: Compound concentration 1000.0 nM
Sequence of Epidermal growth factor receptor (Homo sapiens), P00533 [UNDEFINED MUTATION] (P00533 whole entry, looked up, change not shown): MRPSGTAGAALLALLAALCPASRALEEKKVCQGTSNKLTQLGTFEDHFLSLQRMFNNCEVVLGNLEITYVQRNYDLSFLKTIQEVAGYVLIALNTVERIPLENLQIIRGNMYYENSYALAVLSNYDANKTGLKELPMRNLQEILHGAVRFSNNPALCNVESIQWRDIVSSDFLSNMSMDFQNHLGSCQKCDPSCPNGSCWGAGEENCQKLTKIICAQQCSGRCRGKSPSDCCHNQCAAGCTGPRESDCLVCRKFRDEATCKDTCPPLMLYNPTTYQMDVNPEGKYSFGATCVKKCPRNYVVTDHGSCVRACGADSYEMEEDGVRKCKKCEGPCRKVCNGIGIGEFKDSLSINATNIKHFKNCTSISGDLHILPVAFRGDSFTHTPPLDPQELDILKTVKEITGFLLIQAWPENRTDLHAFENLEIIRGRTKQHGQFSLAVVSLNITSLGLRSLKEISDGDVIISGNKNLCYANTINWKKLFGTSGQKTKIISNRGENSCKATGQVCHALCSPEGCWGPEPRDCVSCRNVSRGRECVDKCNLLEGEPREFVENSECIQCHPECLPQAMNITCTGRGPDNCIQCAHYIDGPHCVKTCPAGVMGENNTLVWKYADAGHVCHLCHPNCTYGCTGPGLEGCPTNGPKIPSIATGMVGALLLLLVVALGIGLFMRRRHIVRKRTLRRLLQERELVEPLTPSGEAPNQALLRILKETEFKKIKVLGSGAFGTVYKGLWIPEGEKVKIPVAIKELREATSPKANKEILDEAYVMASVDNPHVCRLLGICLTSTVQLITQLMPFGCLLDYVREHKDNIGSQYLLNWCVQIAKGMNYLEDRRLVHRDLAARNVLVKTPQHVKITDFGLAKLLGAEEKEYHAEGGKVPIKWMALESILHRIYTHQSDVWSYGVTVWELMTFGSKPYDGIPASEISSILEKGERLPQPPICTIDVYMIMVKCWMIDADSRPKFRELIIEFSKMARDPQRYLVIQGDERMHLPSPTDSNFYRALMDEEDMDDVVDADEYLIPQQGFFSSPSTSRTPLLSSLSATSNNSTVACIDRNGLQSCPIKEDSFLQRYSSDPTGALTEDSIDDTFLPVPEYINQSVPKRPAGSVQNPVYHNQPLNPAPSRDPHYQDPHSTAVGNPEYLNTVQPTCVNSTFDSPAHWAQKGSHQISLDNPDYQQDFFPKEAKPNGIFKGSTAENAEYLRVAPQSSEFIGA

[16] = system: Epidermal growth factor receptor (Homo sapiens), P00533 [UNDEFINED MUTATION]; conditions: Compound concentration 1000.0 nM; remark: listed apart in the source
[17] = molecular target: 5-hydroxytryptamine receptor 1B (Homo sapiens) (UniProt P28222); conditions: Compound concentration 10.0 uM
[18] = molecular target: Serine/threonine-protein kinase 17B (Homo sapiens) (UniProt O94768); conditions: Compound concentration 1000.0 nM
[19] = molecular target: Cyclin-dependent kinase 19 (Homo sapiens) (UniProt Q9BWU1); conditions: Compound concentration 1000.0 nM
[20] = molecular target: Activin receptor type-2A (Homo sapiens) (UniProt P27037); conditions: Compound concentration 1000.0 nM
[21] = molecular target: Activin receptor type-1 (Homo sapiens) (UniProt Q04771); conditions: Compound concentration 1000.0 nM
[22] = molecular target: Mitotic checkpoint serine/threonine-protein kinase BUB1 (Homo sapiens) (UniProt O43683); conditions: Compound concentration 1000.0 nM
[23] = molecular target: Voltage-dependent N-type calcium channel subunit alpha-1B (Rattus norvegicus) (UniProt Q02294); assay: CA+/N/RA Eurofins-Panlabs selectivity data (BI); conditions: Compound concentration 10.0 uM
[24] = molecular target: Serine/threonine-protein kinase PknB (Mycobacterium tuberculosis) (UniProt P9WI81); conditions: Compound concentration 1000.0 nM
[25] = molecular target: Ephrin type-A receptor 5 (Homo sapiens) (UniProt P54756); conditions: Compound concentration 1000.0 nM
[26] = molecular target: Endothelin-converting enzyme 1 (Homo sapiens) (UniProt P42892); assay: ECE-1 (HU) Eurofins-Panlabs selectivity data (BI); conditions: Compound concentration 10.0 uM
[27] = molecular target: Serotonin 1 (5-HT1) receptor (Rattus norvegicus) (UniProt P28564+P30940+P19327+P28565); assay: 5HT1/R Eurofins-Panlabs selectivity data (BI); format: protein assay; conditions: Compound concentration 10.0 uM
[28] = molecular target: Serine/threonine-protein kinase PLK3 (Homo sapiens) (UniProt Q9H4B4); conditions: Compound concentration 1000.0 nM
[29] = system: Mast/stem cell growth factor receptor Kit (Homo sapiens), P10721 [D816V]; conditions: Compound concentration 1000.0 nM
[30] = molecular target: Ribosomal protein S6 kinase alpha-6 (Homo sapiens) (UniProt Q9UK32); conditions: Compound concentration 1000.0 nM
[31] = molecular target: 3-phosphoinositide-dependent protein kinase 1 (Homo sapiens) (UniProt O15530); conditions: Compound concentration 1000.0 nM
[32] = molecular target: Serine/threonine-protein kinase DCLK1 (Homo sapiens) (UniProt O15075); conditions: Compound concentration 1000.0 nM
Sequence of Serine/threonine-protein kinase DCLK1 (Homo sapiens) (O15075 whole entry): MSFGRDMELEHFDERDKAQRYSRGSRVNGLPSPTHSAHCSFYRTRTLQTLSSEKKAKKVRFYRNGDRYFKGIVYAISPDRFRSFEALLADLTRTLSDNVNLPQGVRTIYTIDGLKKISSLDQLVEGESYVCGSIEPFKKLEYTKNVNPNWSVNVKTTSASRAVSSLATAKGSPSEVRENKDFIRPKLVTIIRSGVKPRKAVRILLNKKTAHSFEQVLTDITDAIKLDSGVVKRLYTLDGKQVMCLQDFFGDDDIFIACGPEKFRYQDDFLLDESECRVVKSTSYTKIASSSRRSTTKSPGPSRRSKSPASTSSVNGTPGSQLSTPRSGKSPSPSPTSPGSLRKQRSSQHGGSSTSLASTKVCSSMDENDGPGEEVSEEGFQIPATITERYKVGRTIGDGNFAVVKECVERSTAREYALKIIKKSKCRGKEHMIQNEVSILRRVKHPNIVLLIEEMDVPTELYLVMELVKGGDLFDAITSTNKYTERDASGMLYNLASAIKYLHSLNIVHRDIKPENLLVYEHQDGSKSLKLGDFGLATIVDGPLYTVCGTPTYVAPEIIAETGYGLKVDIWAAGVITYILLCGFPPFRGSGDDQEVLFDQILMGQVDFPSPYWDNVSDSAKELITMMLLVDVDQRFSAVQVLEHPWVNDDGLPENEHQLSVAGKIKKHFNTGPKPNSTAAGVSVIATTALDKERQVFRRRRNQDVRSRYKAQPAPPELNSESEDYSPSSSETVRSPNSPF

[33] = molecular target: T1, Bifunctional epoxide hydrolase 2 (Homo sapiens, UniProt P34913); assay: Cellular assay
T1 sequence (P34913 whole entry): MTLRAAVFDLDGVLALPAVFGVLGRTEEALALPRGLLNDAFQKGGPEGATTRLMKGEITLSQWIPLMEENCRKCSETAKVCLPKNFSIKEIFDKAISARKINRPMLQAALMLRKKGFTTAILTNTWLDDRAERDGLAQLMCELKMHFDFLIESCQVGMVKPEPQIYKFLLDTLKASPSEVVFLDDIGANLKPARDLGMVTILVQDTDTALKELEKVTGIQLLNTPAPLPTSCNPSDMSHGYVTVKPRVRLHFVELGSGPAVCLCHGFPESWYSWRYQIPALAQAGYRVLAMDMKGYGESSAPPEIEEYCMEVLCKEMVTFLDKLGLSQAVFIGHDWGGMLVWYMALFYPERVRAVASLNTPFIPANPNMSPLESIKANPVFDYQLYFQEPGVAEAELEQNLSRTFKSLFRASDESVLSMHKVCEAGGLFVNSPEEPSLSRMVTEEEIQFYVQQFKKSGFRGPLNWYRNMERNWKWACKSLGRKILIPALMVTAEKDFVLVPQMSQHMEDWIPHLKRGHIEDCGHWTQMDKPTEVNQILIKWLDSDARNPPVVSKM

[34] = molecular target: Cannabinoid receptor 1 (Homo sapiens) (UniProt P21554); assay: CB1/H Eurofins-Panlabs selectivity data (BI); conditions: Compound concentration 10.0 uM
[35] = system: Tyrosine-protein kinase ABL1 (Homo sapiens), P00519 [E255K]; conditions: Compound concentration 1000.0 nM
[36] = molecular target: Serine/threonine-protein kinase PAK 1 (Homo sapiens) (UniProt Q13153); conditions: Compound concentration 1000.0 nM
Sequence of Serine/threonine-protein kinase PAK 1 (Homo sapiens) (Q13153 whole entry): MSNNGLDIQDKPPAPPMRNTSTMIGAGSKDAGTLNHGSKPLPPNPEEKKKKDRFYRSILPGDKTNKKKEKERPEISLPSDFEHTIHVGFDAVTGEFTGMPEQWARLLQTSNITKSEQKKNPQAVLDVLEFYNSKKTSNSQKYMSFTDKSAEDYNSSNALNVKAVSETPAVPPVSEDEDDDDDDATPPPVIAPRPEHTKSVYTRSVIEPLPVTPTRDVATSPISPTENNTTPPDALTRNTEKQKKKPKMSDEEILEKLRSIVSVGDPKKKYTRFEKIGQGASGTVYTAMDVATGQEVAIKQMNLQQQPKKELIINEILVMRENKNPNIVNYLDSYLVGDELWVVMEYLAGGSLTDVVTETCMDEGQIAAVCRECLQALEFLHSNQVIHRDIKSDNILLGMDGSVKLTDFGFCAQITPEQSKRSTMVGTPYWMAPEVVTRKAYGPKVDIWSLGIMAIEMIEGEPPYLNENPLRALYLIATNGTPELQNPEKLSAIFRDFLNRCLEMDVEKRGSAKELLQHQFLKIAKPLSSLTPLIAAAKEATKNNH

[37] = molecular target: Leukotriene A-4 hydrolase (Cavia porcellus) (UniProt P19602); assay: LTA4HYD Eurofins-Panlabs selectivity data (BI); conditions: Compound concentration 10.0 uM

CCOCCn1cc(C(=O)Nc2ccc(-n3nc(-c4cccnc4)cc3C(F)(F)F)cn2)ccc1=O [BI 1935]
residual activity [1]: 100%
residual activity [2]: 100%
residual activity [3]: 100%
activity at 1 µM ([4]; compound concentration 1 uM): 86% (not active)
activity at 3 µM ([4]; compound concentration 3 uM): 68% (not active)
activity at 10 µM ([4]; compound concentration 10 uM): 25%
residual activity [5]: 100%
residual activity [6]: 91%
inhibition [7]: -1.74%
residual activity [8]: 100%
residual activity [9]: 94%
residual activity [10]: 108%
residual activity [11]: 88%
residual activity [12]: 84%
residual activity [13]: 98%
residual activity [14]: 86%
residual activity [15]: 100%
residual activity [16]: 100%
inhibition [17]: 18.8%
residual activity [18]: 81%
residual activity [19]: 95%
residual activity [20]: 100%
residual activity [21]: 75%
residual activity [22]: 79%
residual activity [23]: 102%
residual activity [24]: 95%
residual activity [25]: 100%
residual activity [26]: 84%
residual activity [27]: 117%
residual activity [28]: 84%
residual activity [29]: 92%
residual activity [30]: 81%
residual activity [31]: 87%
residual activity [32]: 83%
IC50 [33]: < 1 nM (active)
residual activity [34]: 81%
residual activity [35]: 69%
residual activity [36]: 96%
residual activity [37]: 111%
